Where “and” joins values, the source holds several entries; their conditions need not be identical. Equal entries are not always repeated. Where a SMILES comes first, the peptide text is derived from it.
How the values were obtained:
[1] = test system: the different tested pathogens; format: cell-based; details: span over tested pathogens, undetected values disregarded
From the text: (§1) The microbial strains used in this study were Bacillus subtilis (ATCC, 11774), Candida albicans (TIMM, 1768), Enterococcus faecalis (ATCC, 33186), Escherichia coli (ATCC, 11775), Klebsiella pneumoniae (ATCC, 13883), Methicillin-resistant Staphylococcus aureus (ATCC, BAA-41), Pseudomonas aeruginosa (ATCC, 10145), Salmonella enterica (ATCC, 14028), Serratia marcescens (ATCC, 13880), Staphylococcus aureus (ATCC, 25923) and Vibrio parahaemolyticus (ATCC, 17802). All microbial strains were cultivated overnight at 37 °C and 200 rpm, then subcultured and incubated for 3 h under the same incubation conditions to obtain the mid-logarithmic growth phase. The cultivated cells were washed twice with 10 mM Tris–HCl containing 5 mM D-glucose at pH 7.4 and suspended in the same buffer to be used in different assays, as previously described.
As a conclusive quantitative assessment, broth microtiter assay was used to determine the MIC values of each cryptide against B. subtilis, MRSA, S. enterica, P. aeruginosa, V. parahaemolyticus and C. albicans by following the guidelines of the Clinical and Laboratory Standards Institute (CLSI)[67], with slight modifications. Eighty microliters of 5 × 10^4 CFU/ml of each pathogen were dispensed into a 96-well polypropylene microtiter plate. The wells were then treated with 20 µl of serially diluted cryptides for 3 h at 37 °C. Gentamicin was used for positive controls at 0.2 mg/ml while an equivalent volume of acidified water was used for negative controls. The plates were then topped up with a final concentration of 1 × Mueller Hinton Broth (MHB) and incubated for 18 h under the same incubation conditions. MIC was detected as the lowest concentration of each cryptide that prevents the optically detectable microbial growth at OD = 600 nm.

[2] = test system: B. subtilis; test: Radial diffusion assay; format: cell-based, Bacillus subtilis (ATCC, 11774); details: 5 µl of 500 µM per 3 mm well, 37 °C, mean ± SD
From the text: as §1
(§2) The antimicrobial activity spectra of the selected cryptides were screened against all the mentioned microbial pathogens, except V. parahaemolyticus, by radial diffusion assay as previously described, with slight modifications. […] The plates were then incubated for 18 h, and the antimicrobial activities were measured in the absolute unit (AU), as previously described. […]
(§3) plate. The plates were then incubated for 12 h at 37 °C and antimicrobial activities were measured in the term of absolute unit (A.U). […]

[3] = test system: S. aureus; test: Radial diffusion assay; format: cell-based, Staphylococcus aureus (ATCC, 25923); details: 5 µl of 500 µM per 3 mm well, 37 °C, mean ± SD
From the text: as §1, §2, §3

[4] = test system: E. faecalis; test: Radial diffusion assay; format: cell-based, Enterococcus faecalis (ATCC, 33186); details: 5 µl of 500 µM per 3 mm well, 37 °C, mean ± SD
From the text: as §1, §2, §3

[5] = test system: E. coli K-1; test: Radial diffusion assay; format: cell-based, Escherichia coli (ATCC, 11775); details: 5 µl of 500 µM per 3 mm well, 37 °C, mean ± SD
From the text: as §1, §2, §3

[6] = test system: K. pneumoniae; test: Radial diffusion assay; format: cell-based, Klebsiella pneumoniae (ATCC, 13883); details: 5 µl of 500 µM per 3 mm well, 37 °C, mean ± SD
From the text: as §1, §2, §3

[7] = test system: S. enterica; test: Radial diffusion assay; format: cell-based, Salmonella enterica (ATCC, 14028); details: 5 µl of 500 µM per 3 mm well, 37 °C, mean ± SD
From the text: as §1, §2, §3

[8] = test system: MRSA; test: Radial diffusion assay; format: cell-based, Methicillin-resistant Staphylococcus aureus (ATCC, BAA-41); details: 5 µl of 500 µM per 3 mm well, 37 °C, mean ± SD
From the text: as §1, §2, §3

[9] = test system: S. marcescens; test: Radial diffusion assay; format: cell-based, Serratia marcescens (ATCC, 13880); details: 5 µl of 500 µM per 3 mm well, 37 °C, mean ± SD
From the text: as §1, §2, §3

[10] = test system: S. epidermidis; test: Radial diffusion assay; format: cell-based; details: 5 µl of 500 µM per 3 mm well, 37 °C, mean ± SD
From the text: The antimicrobial activity spectra of the selected cryptides were screened against all the mentioned microbial pathogens, except V. parahaemolyticus, by radial diffusion assay as previously described, with slight modifications. We aimed to test different categories of pathogens on the WHO global priority due to their growing resistance to the available antibiotics such as P. aeruginosa, E. coli and K. pneumoniae in the critical category and Salmonella ssp. and S. aureus in the high category. Briefly, a total of 4 × 10^6 CFU of each pathogen was inoculated in 10 mL of an underlay agarose gel [0.03% w/v tryptone soy broth (TSB) medium, 1% w/v agarose and 0.02% v/v Tween 20 in 10 mM Tris–HCl] that was then poured into a 100-mm petri dish. After agarose solidification, 3 mm-diameter wells were punched by a sterile cork borer and 5 µl of 500 µM stock solution from each cryptide was added to each well. Melittin and acidified water were used as positive and negative controls, respectively. […] The plates were then incubated for 18 h, and the antimicrobial activities were measured in the absolute unit (AU), as previously described. […]
as §3

[11] = test system: MRSA mature biofilm; test: Antibiofilm microtiter plate assay (mature biofilm, crystal violet); format: cell-based, Methicillin-resistant Staphylococcus aureus (ATCC, BAA-41); details: absorbance 600 nm, mean ± SD
Procedure: The antibiofilm activities of the selected cryptides against S. enterica and MRSA mature biofilms were examined by microtiter plate assay as previously described, with slight modification. During the mid-logarithmic phase, S. enterica and MRSA were suspended at the density of 1.7 × 10^8 CFU/ml in MHB. Then 100 µl of each bacterial suspension was dispensed into a vinyl 96 U-shaped-well plate and incubated overnight at 37 °C. The mature biofilms were washed with 10 mM Tris–HCl containing 5 mM D-glucose at pH 7.4 and treated for 8 h with 100 µl of two-fold serially diluted cryptides, under the same incubation conditions. A sterile MHB medium was used as the positive control while an equivalent volume of acidified water was used to treat the negative controls. The treated biofilms were washed twice with the same washing buffer and stained with 0.1% crystal violet for 15 min followed by rinsing with sterile distilled water twice and then dried for 30 min at 37 °C. The stain was dissolved with 33% acetic acid and transferred to an optically clear 96-well flat bottom plate which was then measured at 600 nm.
Table S.4 Antibiofilm activities of the selected Cryptides against S. enterica and MRSA. Microbial cells were suspended at 1.7 X 10^8 CFU/ml density, during the mid-logarithmic phase in MHB. Then, 96 U-shaped -well plates were inoculated with 100 µl of microbial suspension and incubated for 48 h at 37 °C. The formed biofilms were washed with 10 mM Tris-HCl and treated with 100 µl of different concentrations of each peptide for 24 h. The treated biomasses were washed and fixed with methanol for 15 min at -20 °C before staining with 0.1 % crystal violet. The stained biofilms were dissolved in 100 µl of 33 % acetic acid and the quantities of crystal violet stains were determined by measuring absorbance at 600 nm as an indicator of the remaining biomass after treatment. Untreated cells were used as negative control [indicating 100 % biofilm integrity] while the sterile medium was used as a positive control [indicating 0 % biofilm integrity].
S. enterica MRSA S. enterica MRSA S. enterica MRSA S. enterica MRSA S. enterica MRSA

`CC(C)C[C@H](NC(=O)[C@H](CCCNC(=N)N)NC(=O)[C@H](Cc1c[nH]c2ccccc12)NC(=O)[C@H](CCCNC(=N)N)NC(=O)[C@H](CC(C)C)NC(=O)[C@@H](N)Cc1ccccc1)C(=O)N[C@@H](CCCCN)C(=O)N[C@@H](Cc1ccccc1)C(=O)N[C@@H](CCCCN)C(=O)N[C@@H](CO)C(=O)N[C@@H](CCCCN)C(=O)N[C@H](C(=O)N[C@@H](Cc1c[nH]c2ccccc12)C(=O)N[C@@H](CS)C(=O)N1CCC[C@H]1C(=O)O)C(C)C` [AD7] (H-FLRWRLKFKSKVWCP-OH) was tested, and the “MBC values, range against the different tested pathogens” value [1] was 0.39 ~ 25 µM and the “MIC values, range against the different tested pathogens” value [1] was 0.39 ~ 6.25 µM.

With “RHCLRSKRPPNVCPH [AD4, cationic cryptide from P. vannamei precursor DN34505 (Pl-crustin 2), chemically synthesised]” the “Antimicrobial activity (inhibition zone) B. subtilis” value [2] was 13.8± 0.7 A.U, the “Antimicrobial activity (inhibition zone) S. aureus” value [3] was 24.4 ± 0.9 A.U and the “Antimicrobial activity (inhibition zone) E. faecalis” value [4] was 14.7 ± 1.2 A.U. For the same molecule, the “Antimicrobial activity (inhibition zone) E. coli K-1” value [5] was 7.7 ± 1 A.U, the “Antimicrobial activity (inhibition zone) K. pneumoniae” value [6] was 0 A.U and the “Antimicrobial activity (inhibition zone) S. enterica” value [7] was 7.7 ± 1 A.U. For the same molecule, the “Antimicrobial activity (inhibition zone) MRSA” value [8] was 12.2 ± 1.1 A.U, the “Antimicrobial activity (inhibition zone) S. marcescens” value [9] was 0 A.U and the “Antimicrobial activity (inhibition zone) S. epidermidis” value [10] was 9 ± 0 A.U. For the same molecule, the “Biofilm eradication MRSA, 12.5 µM” value [11] was 0%, the “Biofilm eradication MRSA, 25 µM” value [11] was 0.86 ± 3.1% and the “Biofilm eradication MRSA, 50 µM” value [11] was 11.53 ±1.4%. For the same molecule, the “Biofilm eradication MRSA, 100 µM” value [11] was 27.05 ±1.3% and the “Biofilm eradication MRSA, 200 µM” value [11] was 35.86 ± 2.5% and 35.8%.

Reference: publication PMC10482825 (Scientific Reports, 2023)
